Activity calls are given as the source filed them. No cut-off for these calls is given here.
What was measured:
PC-3 [1] = assay: Inhibition of PARP in human PC3 cells assessed as reduction in auto-PARylation at 10 uM measured after 48 hrs by Western blot analysis; type: cell-based
PC-3 [2] = assay: Growth inhibition of human PC3 cells after 5 days by SRB assay; type: functional, cell-based; conditions: PC-3, 120 h
CWR22R [3] = assay: Growth inhibition of human 22Rv1 cells after 5 days by SRB assay; type: functional, cell-based; conditions: 22Rv1, 120 h
DU-145 = assay: Growth inhibition of human DU145 cells after 5 days by SRB assay; type: functional, cell-based; conditions: DU-145, 120 h
CWR22R [4] = assay: Inhibition of PARP in human 22Rv1 cells assessed as reduction in auto-PARylation at 10 uM measured after 48 hrs by Western blot analysis; type: cell-based
[5] = Induction of 2'-Deoxyguanosine depurination at 0.1 mM measured after 24 hrs by LC-MS analysis; conditions: 100 µM
[6] = molecular target: T1, Epidermal growth factor receptor (Homo sapiens, UniProt P00533); assay: Inhibition of EGFR in human PC3 cells assessed as reduction in EGF-stimulated EGFR phosphorylation preincubated for 2 hrs followed by EGF stimulation and measured after 30 mins by Western blot analysis; type: cell-based; conditions: PC-3
[7] = Drug uptake in human 22Rv1 cells assessed as drug accumulation in perinuclear region at 10 uM measured after 2 hrs by confocal laser scanning microscopic analysis; type: ADME, cell-based; conditions: cwr22r
[8] = molecular target: T1, Epidermal growth factor receptor; assay: Inhibition of EGFR in human PC3 cells assessed as reduction in EGF-stimulated EGFR phosphorylation at <= 1 uM preincubated for 2 hrs followed by EGF stimulation and measured after 30 mins by Western blot analysis relative to control; type: cell-based; conditions: PC-3
DNA [9] = assay: Induction of DNA damage in human 22Rv1 cells measured after 2 to 24 hrs by alkaline commet assay; type: cell-based; conditions: CWR22R
DNA [10] = assay: Induction of DNA damage in human 22Rv1 cells assessed as increase in gammaH2AX phosphorylation up to 20 uM measured after 48 hrs by Western blot analysis; type: cell-based; conditions: CWR22R
DNA [11] = assay: Induction of DNA damage in human 22Rv1 cells at 12.5 measured after 2 to 24 hrs by alkaline commet assay relative to busulfan; type: cell-based; conditions: CWR22R
[12] = molecular target: T1, Epidermal growth factor receptor; assay: Inhibition of EGFR in human PC3 cells assessed as reduction in EGF-stimulated ERK phosphorylation at 0.1 to 100 uM preincubated for 2 hrs followed by EGF stimulation and measured after 30 mins by Western blot analysis; type: cell-based; conditions: PC-3
[13] = Selectivity ratio of IC50 for EGFR (unknown origin) transfected in mouse NIH/3T3 cells to IC50 for EGFR in mouse NIH/3T3 cells; type: cell-based
DNA [14] = assay: Induction of DNA damage in human PC3 cells at 12.5 uM measured after 2 to 24 hrs by alkaline commet assay relative to busulfan; type: cell-based; conditions: PC-3
[15] = molecular target: T1, Epidermal growth factor receptor; assay: Inhibition of EGFR in human 22Rv1 cells assessed as reduction in EGF-stimulated EGFR phosphorylation at <= 1 uM preincubated for 2 hrs followed by EGF stimulation and measured after 30 mins by Western blot analysis relative to control; type: cell-based; conditions: CWR22R
DNA [16] = assay: Induction of DNA damage in human PC3 cells measured after 2 to 24 hrs by alkaline commet assay; type: cell-based; conditions: PC-3
[17] = molecular target: T1, Epidermal growth factor receptor; assay: Inhibition of EGFR in human PC3 cells assessed as reduction in EGF-stimulated AKT phosphorylation at 0.1 to 100 uM preincubated for 2 hrs followed by EGF stimulation and measured after 30 mins by Western blot analysis; type: cell-based; conditions: PC-3
Homo sapiens = species: Homo sapiens; assay: Selectivity ratio of IC50 for BRCA mutant (unknown origin) expressed in Cricetulus griseus VCA cells to IC50 for BRCA (unknown origin) expressed in Cricetulus griseus VCA cells; type: cell-based
CWR22R [18] = assay: Inhibition of PARP in human 22Rv1 cells assessed as reduction in auto-PARylation up to 20 uM measured after 48 hrs by Western blot analysis; type: cell-based
[19] = molecular target: T1, Epidermal growth factor receptor; assay: Inhibition of EGFR in human 22Rv1 cells assessed as reduction in EGF-stimulated EGFR phosphorylation preincubated for 2 hrs followed by EGF stimulation and measured after 30 mins by Western blot analysis; type: cell-based; conditions: CWR22R
DNA [20] = assay: Induction of DNA damage in human PC3 cells assessed as increase in gammaH2AX phosphorylation up to 20 uM measured after 48 hrs by Western blot analysis; type: cell-based; conditions: PC-3
[21] = Drug uptake in human 22Rv1 cells at 25 uM measured up to 6 hrs by LC-MS/MS analysis; type: ADME, cell-based; conditions: cwr22r
[22] = molecular target: T1, Epidermal growth factor receptor; assay: Inhibition of recombinant human N-terminal GST-tagged EGFR (668 to end residues) expressed in baculovirus infected Sf9 insect cells assessed as reduction in […] EGFR phosphorylation […] by TMB peroxidase substrate based assay
PC-3 [23] = assay: Inhibition of PARP in human PC3 cells assessed as reduction in auto-PARylation up to 20 uM measured after 48 hrs by Western blot analysis; type: cell-based

T1 sequence (P00533 whole entry): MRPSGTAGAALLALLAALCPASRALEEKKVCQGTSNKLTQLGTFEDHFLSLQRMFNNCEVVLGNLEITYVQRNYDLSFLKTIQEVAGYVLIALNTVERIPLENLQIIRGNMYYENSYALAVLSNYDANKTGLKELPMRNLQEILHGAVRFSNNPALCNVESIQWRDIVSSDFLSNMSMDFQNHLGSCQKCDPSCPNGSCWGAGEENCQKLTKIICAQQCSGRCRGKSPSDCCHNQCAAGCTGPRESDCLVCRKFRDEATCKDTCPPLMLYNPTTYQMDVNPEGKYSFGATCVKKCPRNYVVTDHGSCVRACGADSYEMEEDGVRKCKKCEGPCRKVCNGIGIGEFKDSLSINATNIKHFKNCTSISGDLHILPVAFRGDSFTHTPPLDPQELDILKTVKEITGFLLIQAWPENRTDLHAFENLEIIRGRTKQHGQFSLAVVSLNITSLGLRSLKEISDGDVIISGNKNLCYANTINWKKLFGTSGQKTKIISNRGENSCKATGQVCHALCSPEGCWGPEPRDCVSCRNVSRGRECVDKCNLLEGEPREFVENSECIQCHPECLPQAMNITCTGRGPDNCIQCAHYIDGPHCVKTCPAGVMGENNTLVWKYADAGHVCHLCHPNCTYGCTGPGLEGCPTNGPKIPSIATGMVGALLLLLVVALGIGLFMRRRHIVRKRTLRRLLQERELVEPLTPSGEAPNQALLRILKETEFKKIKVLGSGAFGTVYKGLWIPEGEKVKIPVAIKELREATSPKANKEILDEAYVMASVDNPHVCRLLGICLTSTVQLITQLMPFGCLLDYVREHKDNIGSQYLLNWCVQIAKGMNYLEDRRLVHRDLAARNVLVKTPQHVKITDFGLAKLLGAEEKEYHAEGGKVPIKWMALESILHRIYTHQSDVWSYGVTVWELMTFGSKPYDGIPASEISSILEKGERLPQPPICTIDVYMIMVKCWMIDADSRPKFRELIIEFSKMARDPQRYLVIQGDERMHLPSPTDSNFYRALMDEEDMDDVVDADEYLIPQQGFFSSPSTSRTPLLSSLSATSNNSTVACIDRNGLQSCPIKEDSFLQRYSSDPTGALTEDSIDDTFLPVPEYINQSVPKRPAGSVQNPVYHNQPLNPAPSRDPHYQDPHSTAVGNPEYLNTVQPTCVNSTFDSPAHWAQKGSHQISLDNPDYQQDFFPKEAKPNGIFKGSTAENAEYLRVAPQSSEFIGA

O=C(c1cc(Cc2n[nH]c(=O)c3ccccc23)ccc1F)N1CCN(C(=O)C2CC2)CC1 [OLAPARIB]
inhibition (PC-3 [1]): Active
IC50 (PC-3 [2]): 20.6 µM
IC50 (CWR22R [3]): 33.8 µM
IC50 (DU-145): 17.7 µM
inhibition (CWR22R [4]): Active

CS(=O)(=O)OCCCCOS(C)(=O)=O [BUSULFAN]
IC50 (PC-3 [2]): 36.2 µM
IC50 (CWR22R [3]): 24.3 µM
IC50 (DU-145): 25.8 µM

CN(CCOS(=O)(=O)CCc1cn(CCCC(=O)N2CCN(C(=O)c3cc(Cc4n[nH]c(=O)c5ccccc45)ccc3F)CC2)nn1)c1ccc2ncnc(Nc3cccc(Br)c3)c2c1
Drug metabolism [5]: Metabolite_Detected
inhibition [6]: Dose-dependent effect
Drug uptake [7]: Active
inhibition [8]: 34 to 45%
IC50 (PC-3 [2]): 3 µM
Activity (DNA [9]): Dose-dependent effect
IC50 (CWR22R [3]): 1.9 µM
Activity (DNA [10]): Active
fold change (FC) (DNA [11]): 3 to 6
IC50 (DU-145): 3.2 µM
inhibition [12]: Active
Ratio IC50 [13]: 7
fold change (FC) (DNA [14]): 3 to 6
inhibition [15]: 34 to 45%
Activity (DNA [16]): Dose-dependent effect
inhibition [17]: Active
Ratio IC50 (Homo sapiens): 3 to 4
inhibition (CWR22R [18]): Active
inhibition [19]: Dose-dependent effect
Activity (DNA [20]): Active
Drug uptake [21]: Active
IC50 [22]: 0.326 µM
inhibition (PC-3 [23]): Active
